The inhibition is the relative decrease from the control value, in per cent.

The record followed here is ChEMBL document CHEMBL5653615 (J Biol Chem, 2013).

In experiment [1] the target is Tyrosine-protein kinase FRK (Homo sapiens) (UniProt P42685). The experiment can be described thus: Inhibition of human FRK at 1.82 nM by HotSpot assay relative to control.
Experiment [2] concerns the target T1, Serine/threonine-protein kinase D1 (Homo sapiens) (UniProt Q15139).
T1 sequence (whole entry): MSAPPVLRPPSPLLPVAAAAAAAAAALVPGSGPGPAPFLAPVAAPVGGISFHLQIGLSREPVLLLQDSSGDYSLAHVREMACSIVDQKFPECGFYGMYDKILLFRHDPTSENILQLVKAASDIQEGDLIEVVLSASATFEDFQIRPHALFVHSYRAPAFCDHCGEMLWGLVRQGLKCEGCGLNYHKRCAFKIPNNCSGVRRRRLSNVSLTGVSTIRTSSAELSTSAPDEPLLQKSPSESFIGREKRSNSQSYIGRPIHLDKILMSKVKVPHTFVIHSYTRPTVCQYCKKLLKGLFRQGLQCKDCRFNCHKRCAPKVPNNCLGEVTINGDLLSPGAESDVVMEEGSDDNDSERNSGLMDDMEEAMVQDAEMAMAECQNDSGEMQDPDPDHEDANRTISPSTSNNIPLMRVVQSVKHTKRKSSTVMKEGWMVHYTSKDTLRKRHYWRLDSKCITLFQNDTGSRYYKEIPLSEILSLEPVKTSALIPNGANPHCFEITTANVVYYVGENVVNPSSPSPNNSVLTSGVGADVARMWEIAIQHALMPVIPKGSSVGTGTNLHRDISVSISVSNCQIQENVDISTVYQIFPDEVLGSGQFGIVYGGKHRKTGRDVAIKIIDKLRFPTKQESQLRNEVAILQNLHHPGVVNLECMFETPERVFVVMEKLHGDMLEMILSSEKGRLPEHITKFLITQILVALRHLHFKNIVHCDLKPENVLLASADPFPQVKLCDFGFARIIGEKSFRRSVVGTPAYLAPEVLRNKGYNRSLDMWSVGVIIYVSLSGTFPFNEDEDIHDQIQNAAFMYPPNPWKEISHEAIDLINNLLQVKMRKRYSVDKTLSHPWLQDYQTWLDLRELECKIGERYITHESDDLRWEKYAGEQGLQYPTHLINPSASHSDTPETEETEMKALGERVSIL
In words: Inhibition of human PRKD1 at 1.82 nM by HotSpot assay relative to control.

The target of experiment [3] is T2, Dual serine/threonine and tyrosine protein kinase (Homo sapiens) (UniProt Q6XUX3).
T2 sequence (whole entry): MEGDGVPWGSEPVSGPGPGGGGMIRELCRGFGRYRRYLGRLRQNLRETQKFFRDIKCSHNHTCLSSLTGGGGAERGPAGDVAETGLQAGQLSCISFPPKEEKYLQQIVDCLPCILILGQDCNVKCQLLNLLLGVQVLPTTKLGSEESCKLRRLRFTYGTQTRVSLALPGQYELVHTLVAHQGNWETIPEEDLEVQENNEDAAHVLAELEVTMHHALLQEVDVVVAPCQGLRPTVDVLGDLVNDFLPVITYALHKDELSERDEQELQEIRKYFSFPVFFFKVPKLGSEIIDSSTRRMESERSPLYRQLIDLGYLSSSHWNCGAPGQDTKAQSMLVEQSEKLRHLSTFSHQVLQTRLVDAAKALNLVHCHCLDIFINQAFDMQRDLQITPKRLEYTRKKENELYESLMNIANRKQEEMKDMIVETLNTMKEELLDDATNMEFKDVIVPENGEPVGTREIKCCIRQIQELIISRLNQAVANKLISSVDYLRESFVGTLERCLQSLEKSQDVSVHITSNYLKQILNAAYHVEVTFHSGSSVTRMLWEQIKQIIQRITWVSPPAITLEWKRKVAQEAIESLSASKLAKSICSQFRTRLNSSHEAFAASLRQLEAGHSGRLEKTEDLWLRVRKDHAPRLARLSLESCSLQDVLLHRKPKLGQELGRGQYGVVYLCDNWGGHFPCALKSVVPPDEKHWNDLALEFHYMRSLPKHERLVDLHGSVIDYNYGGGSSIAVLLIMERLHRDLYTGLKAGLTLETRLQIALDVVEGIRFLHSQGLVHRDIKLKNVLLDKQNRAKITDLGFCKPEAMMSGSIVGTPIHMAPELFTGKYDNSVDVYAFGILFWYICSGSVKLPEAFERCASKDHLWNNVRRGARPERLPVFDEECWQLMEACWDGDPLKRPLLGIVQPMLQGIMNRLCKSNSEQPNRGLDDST
The experiment can be described thus: Inhibition of human RIPK5 at 1.82 nM by HotSpot assay relative to control.

Experiment [4] addresses Dual specificity protein kinase CLK4 (Homo sapiens) (UniProt Q9HAZ1). To be noted: dose 1.82 nM.
Description: Inhibition of human CLK4 at 1.82 nM by HotSpot assay relative to control
Experiment [5] deals with ALK tyrosine kinase receptor (Homo sapiens) (UniProt Q9UM73). In words: Inhibition of human ALK at 500 nM by HotSpot assay relative to control.
ALK tyrosine kinase receptor (Homo sapiens), sequence (Q9UM73 19-1620 limits assumed): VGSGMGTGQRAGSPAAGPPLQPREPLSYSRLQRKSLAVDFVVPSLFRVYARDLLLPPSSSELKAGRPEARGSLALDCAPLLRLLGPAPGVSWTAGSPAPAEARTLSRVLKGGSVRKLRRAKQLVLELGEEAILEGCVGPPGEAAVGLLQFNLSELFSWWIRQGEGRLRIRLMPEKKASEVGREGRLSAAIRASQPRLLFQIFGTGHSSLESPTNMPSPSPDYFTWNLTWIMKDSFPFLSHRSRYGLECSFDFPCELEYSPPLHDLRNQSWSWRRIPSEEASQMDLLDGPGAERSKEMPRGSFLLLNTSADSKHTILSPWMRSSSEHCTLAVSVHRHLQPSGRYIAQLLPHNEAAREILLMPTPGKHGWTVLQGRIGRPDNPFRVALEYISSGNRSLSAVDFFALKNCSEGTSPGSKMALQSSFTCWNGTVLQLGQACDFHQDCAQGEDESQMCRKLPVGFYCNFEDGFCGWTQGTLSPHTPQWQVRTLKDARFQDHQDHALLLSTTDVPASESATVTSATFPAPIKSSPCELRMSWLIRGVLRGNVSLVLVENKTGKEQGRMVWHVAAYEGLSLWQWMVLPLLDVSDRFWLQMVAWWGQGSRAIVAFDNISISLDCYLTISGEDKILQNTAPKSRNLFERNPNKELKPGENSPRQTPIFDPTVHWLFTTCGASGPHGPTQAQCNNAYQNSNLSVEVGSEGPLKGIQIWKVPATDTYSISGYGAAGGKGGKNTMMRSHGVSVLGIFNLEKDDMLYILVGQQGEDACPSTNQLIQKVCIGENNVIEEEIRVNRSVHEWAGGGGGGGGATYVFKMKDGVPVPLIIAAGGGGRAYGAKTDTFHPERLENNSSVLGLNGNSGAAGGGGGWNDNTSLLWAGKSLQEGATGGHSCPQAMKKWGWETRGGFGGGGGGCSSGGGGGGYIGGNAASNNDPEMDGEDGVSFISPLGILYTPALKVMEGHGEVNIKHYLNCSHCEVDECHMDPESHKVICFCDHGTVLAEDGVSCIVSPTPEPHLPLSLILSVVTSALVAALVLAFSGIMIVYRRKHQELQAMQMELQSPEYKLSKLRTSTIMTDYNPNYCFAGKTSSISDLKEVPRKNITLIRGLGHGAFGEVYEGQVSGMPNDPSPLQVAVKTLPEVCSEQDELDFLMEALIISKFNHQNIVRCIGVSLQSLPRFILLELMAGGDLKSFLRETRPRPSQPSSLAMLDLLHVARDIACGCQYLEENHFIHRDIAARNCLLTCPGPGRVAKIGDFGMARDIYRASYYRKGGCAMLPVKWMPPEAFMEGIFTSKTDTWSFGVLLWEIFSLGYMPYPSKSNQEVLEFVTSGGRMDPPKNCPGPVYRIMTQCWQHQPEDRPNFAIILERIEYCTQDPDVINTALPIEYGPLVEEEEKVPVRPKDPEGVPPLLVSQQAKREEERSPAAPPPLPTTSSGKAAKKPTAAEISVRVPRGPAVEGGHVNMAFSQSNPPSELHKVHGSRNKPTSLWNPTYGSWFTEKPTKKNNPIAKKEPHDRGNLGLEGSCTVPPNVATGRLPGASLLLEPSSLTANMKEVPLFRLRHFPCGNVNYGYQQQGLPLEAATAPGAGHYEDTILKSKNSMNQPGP
In experiment [6] the target is Homeodomain-interacting protein kinase 2 (Homo sapiens) (UniProt Q9H2X6). The experiment can be described thus: Inhibition of human HIPK2 at 18.6 nM by HotSpot assay relative to control.
The target in experiment [7] is T3, Inhibitor of nuclear factor kappa-B kinase subunit epsilon (Homo sapiens) (UniProt Q14164).
T3 sequence (whole entry): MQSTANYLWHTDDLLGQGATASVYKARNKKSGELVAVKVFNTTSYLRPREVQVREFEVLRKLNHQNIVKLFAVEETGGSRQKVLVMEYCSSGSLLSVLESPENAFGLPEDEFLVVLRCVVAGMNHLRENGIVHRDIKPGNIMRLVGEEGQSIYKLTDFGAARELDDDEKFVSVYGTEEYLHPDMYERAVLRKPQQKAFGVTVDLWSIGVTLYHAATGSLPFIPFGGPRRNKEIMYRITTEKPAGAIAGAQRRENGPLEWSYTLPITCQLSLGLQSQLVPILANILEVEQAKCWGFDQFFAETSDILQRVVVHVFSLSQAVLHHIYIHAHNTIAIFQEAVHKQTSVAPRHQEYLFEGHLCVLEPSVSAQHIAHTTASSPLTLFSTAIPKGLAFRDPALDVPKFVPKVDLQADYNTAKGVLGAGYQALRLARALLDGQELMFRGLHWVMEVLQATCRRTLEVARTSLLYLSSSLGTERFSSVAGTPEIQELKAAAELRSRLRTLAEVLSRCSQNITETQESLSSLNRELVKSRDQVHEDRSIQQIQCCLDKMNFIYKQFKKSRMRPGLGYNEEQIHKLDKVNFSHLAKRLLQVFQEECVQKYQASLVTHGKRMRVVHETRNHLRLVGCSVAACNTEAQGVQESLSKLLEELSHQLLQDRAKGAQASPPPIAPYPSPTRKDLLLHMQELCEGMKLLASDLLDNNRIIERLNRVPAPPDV
The experiment can be described thus: Inhibition of human IKKe at 18.6 nM by HotSpot assay relative to control.

Experiment [8] concerns the target Mitogen-activated protein kinase kinase kinase 10 (Homo sapiens) (UniProt Q02779). In words: Inhibition of human MAP3K10 at 18.6 nM by HotSpot assay relative to control.
Experiment [9] deals with Receptor-interacting serine/threonine-protein kinase 2 (Homo sapiens) (UniProt O43353). In words: Inhibition of human RIPK2 at 18.6 nM by HotSpot assay relative to control.
Receptor-interacting serine/threonine-protein kinase 2 (Homo sapiens), sequence (O43353 whole entry): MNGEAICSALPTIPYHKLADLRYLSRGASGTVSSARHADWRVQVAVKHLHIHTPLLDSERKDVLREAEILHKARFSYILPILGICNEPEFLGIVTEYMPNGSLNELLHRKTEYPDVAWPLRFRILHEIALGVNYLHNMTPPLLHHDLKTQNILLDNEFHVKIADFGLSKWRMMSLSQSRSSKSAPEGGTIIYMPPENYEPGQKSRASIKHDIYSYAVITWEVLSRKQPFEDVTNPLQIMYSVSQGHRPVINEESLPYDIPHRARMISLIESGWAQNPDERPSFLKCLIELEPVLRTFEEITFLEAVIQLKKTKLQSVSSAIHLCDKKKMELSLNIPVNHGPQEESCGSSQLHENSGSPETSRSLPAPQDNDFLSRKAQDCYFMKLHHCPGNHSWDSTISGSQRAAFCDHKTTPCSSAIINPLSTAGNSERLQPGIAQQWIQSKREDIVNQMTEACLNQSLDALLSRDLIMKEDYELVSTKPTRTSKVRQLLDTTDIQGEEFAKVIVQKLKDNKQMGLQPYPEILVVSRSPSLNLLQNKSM

Tyrosine-protein kinase FRK (Homo sapiens), sequence (P42685 whole entry): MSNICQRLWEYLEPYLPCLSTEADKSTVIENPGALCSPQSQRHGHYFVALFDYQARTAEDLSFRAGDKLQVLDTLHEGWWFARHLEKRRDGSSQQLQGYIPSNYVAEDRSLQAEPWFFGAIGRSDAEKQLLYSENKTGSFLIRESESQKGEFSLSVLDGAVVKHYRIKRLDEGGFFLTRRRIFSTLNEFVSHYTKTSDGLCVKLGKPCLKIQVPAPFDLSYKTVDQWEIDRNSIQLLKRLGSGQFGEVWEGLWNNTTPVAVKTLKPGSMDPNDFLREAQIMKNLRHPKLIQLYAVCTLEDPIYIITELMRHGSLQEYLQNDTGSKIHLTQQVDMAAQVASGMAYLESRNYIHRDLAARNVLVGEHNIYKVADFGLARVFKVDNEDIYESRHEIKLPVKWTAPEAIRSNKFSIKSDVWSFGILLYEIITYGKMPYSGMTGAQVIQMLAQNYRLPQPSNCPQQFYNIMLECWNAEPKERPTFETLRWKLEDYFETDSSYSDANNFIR
Mitogen-activated protein kinase kinase kinase 10 (Homo sapiens), sequence (Q02779 whole entry, looked up): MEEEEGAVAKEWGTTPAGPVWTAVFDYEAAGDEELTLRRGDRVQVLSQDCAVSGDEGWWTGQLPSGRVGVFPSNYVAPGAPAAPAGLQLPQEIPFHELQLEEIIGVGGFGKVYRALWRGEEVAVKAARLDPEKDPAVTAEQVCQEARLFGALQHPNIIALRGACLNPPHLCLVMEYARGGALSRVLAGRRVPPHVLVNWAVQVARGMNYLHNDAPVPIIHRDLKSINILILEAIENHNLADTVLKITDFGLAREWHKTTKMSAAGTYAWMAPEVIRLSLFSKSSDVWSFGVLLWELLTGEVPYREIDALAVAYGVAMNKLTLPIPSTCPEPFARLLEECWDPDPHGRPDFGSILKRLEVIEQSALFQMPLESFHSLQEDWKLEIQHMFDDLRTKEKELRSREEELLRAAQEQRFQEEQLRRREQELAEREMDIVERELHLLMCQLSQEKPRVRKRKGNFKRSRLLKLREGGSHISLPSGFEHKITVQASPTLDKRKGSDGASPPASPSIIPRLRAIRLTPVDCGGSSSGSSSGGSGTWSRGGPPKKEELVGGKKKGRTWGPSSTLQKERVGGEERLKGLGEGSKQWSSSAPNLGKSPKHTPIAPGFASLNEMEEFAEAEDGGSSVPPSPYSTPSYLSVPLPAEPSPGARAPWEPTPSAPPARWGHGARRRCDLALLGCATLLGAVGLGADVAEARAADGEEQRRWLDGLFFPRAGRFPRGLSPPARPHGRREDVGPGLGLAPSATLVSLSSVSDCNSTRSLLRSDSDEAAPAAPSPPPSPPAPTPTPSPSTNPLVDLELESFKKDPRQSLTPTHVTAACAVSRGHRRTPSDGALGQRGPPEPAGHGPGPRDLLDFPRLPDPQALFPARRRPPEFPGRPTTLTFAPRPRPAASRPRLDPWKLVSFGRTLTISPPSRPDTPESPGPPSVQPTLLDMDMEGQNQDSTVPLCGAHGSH
Dual specificity protein kinase CLK4 (Homo sapiens), sequence (Q9HAZ1 whole entry, looked up): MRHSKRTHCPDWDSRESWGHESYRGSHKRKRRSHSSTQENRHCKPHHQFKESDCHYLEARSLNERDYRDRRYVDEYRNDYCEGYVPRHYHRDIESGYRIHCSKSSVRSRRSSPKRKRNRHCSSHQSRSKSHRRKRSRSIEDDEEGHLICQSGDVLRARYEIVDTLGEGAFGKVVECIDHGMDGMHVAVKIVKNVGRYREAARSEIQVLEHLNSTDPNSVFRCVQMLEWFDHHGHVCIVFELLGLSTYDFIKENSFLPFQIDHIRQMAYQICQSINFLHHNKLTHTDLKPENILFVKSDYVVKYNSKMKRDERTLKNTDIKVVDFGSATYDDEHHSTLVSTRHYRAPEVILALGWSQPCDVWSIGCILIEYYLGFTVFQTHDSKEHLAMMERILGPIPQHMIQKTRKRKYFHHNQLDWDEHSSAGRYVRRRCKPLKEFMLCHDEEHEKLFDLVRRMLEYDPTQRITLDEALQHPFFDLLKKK

On to `C[C@@]1(C(=O)Nc2ccc(F)nc2)CCCN1c1nc(Nc2cc(C3CC3)n[nH]2)c2cccn2n1`, for which the inhibition in [1] is 0.97%; in experiment [2], -5.1%; in [3], 4.61%; in [4], -10%.
For `Nc1n[nH]c2nnc(-c3c(-c4ccccc4)nn4ccccc34)cc12`, the inhibition in [5] was -7.89%.
On to `C[C@]1(O)C[C@@H](c2nc(-c3ccc4ccc(-c5ccccc5)nc4c3)c3c(N)nccn32)C1`, for which the inhibition in experiment [6] was -0.98%; in experiment [7], 3.19%; in experiment [8] it was -0.06%; in experiment [9] it was 12.1%.
